The text below walks through data of patent US11801232B2, “Targeting of ARID1A-deficient cancers by inhibiting de novo pyrimidine synthesis pathway” (YALE UNIVERSITY, priority 2019, dated 2023).

For one data set, the system named is P-CHK1 Ser345. Briefly: Immunoblot of phosphorylated CHK1 in ES2 cell lysates. It is filed as cell-based, human. The conditions noted are these: ES2 cells; teriflunomide 15 μM, AZD6738 1.5 μM. The procedure: Immunoblot Analysis and Co-Immunoprecipitation Assay. For immunoblotting experiments, cells were lysed in BC200 lysis buffer [20 mM Tris-HCl (pH 7.5), 200 mM NaCl, 1 mM EDTA, 0.2% Nonidet P-40 (NP-40), freshly added complete protease inhibitor cocktail (from Roche), and PhosSTOP phosphatase inhibitor (from Roche)] or in boiling SDS lysis buffer [1% SDS and 10 mM Tris-CI (pH 7.5)], as previously described^21. Protein concentrations were quantified using a modified Lowry assay, and equal protein amounts were loaded onto a 10% SDS-PAGE gel and separated by gel electrophoresis, followed by transfer to a nitrocellulose membrane. The nitrocellulose membrane was stained with Ponceau S to confirm equal protein loading and then blocked in 2% BSA in Tris-buffered saline with 0.1% Tween-20 (tris buffered saline with tween, or TBST). Primary antibody incubation was done for 2 h at room temperature or, for phospho-specific antibodies, overnight at 4° C. An HRP-conjugated secondary antibody was used, followed by detection using enhanced chemiluminescence substrate (from Pierce). Autoradiograph images were scanned and saved as unmodified TIFF images, and densitometry analysis was done with ImageJ (from NIH) software.
Background: In western blotting, separated proteins are transferred to a membrane and probed.

The next data set deals with OVISE cells, LacZ. As to the kind of experiment: Cytotoxicity (SRB) assay with CalcuSyn combination analysis. It is filed as cell-based. The conditions noted are these: Homo sapiens, Table 3, single drug, read-out: Dm. The protocol:
(§1) Short Hairpin RNA (shRNA)-Mediated Knockdown and Expression of ARID1A in ovarian and endometrial carcinoma cells. shRNA lentiviral supernatants were produced using standard protocols, as previously described^8. Vectors were transfected into HEK293FT cells using X-tremeGENE 9 DNA Transfection Reagent (from Roche). Retroviral supernatants isolated at 48 h were diluted 1:1 in culture medium and used to infect ARID1A-wildtype ES2 and KLE cell lines. Stably transfected subclones were expanded using puromycin (from Dot Scientific) drug selection. For expression of ARID1A in the ARID1A-mutant HEC-1-A cell line, pCIN4-HA-ARID1A was transfected using X-tremeGENE 9 DNA Transfection Reagent (from Roche), followed by selection with G418 (from Gibco). For expression of ARID1A in the ARID1A-mutant SKOV3 and OVISE cell lines, V5/His-tagged pLenti-puro-LacZ and pLenti-puro-ARID1A were transfected using lentivirus. Lentivirus was produced using HEK293FT cells with the second-generation packaging system pSPAX2 (Addgene plasmid) and pMD2.G (Addgene plasmid). Stably transfected subclones were expanded using puromycin and blasticidin (Gibco) drug selection.
(§2) Cytotoxicity assay. Cells were seeded in 96-well plates, with 2000 cells in 100 μL/well, and cultured for 24 h. The cells were treated with serial dilutions of drugs or without drug for an additional 72 h. Cell number was determined using a sulforhodamine B (SRB) assay, as previously described^23. Briefly, cells were fixed with 20% trichloroacetic acid (TCA), air-dried, and stained with 0.4% SRB dissolved in 1% acetic acid. After washing, protein-bound dye was solubilized with 10 mM unbuffered Tris-base solution (pH 10.5) and detected at 510 nm using a microplate reader. Percentage of cell-growth was calculated using the following formula: % cell growth=[(Absorbance sample)/(Absorbance untreated)]×100
(§3) Using CalcuSyn software (Biosoft), dose-effect curves were generated, and drug concentrations corresponding to a 50% decrease in cell number (IC50) were determined.
(§4) CIwt<0.8, =0.8 to 1.2, and >1.2 indicates synergism, an additive effect, and antagonism, respectively. A CIwt value was assigned as follows: (ED50+2ED75+3ED90)/6. Datasets from at least three independent experiments were combined, and means±SD were calculated for each combination. Teri, teriflunomide. N/A, not applicable. Statistical analysis was carried out by one-way ANOVA with Bonferroni's post-hoc test, and differences were considered significant at ***P<0.001 as compared to the ARID1A restoration group induced by doxycycline with the same drug treatment.

A further data set has as its system OVISE cells, LacZ Dox. The description is as above. The following applies: Homo sapiens, Table 3, single drug, read-out: Dm. It counts as cell-based. The procedure: as §1, §2, §3, §4
Data set [1] has as its system ARID1A-restoration OVISE cells (ARID1A Dox). The description is as above. It counts as cell-based. The conditions noted are these: Homo sapiens, Table 3, single drug, read-out: Dm. The protocol: as §1, §2, §3, §4
In data set [2] the test system is OVISE cells, ARID1A (not induced). The description is as above. It counts as cell-based. The conditions noted are these: Homo sapiens, Table 3, single drug, read-out: Dm. The procedure: as §1, §2, §3, §4
In the next data set the test system is ES2-shARID1A xenografts. The following applies: mouse, in vivo, ip, 4 mg/kg. The protocol: Animal Model. All animal procedures were conducted in accordance with a protocol approved by the Institutional Animal Care and Use Committee at Yale University.
Three mouse experiments were performed: (i) to assess an effect of teriflunomide on ES2 cells in vivo, (ii) to assess an effect of teriflunomide on SKOV3 cells in vivo, and (iii) to assess a combination effect of teriflunomide and AZD6738 on ES2-shARID1A cells in vivo. All experiments were performed using subcutaneous cell-xenograft models generated by injecting cells into the flanks of 6-week-old female athymic NCr-nu/nu mice (Charles River Laboratories).
Animal-human dose translation was calculated as previously described^24. Tumor volumes were measured every other day by caliper to determine tumor volume using the formula (length/2)×(width^2). […] Experiments were terminated when mean tumor volume of a vehicle ES2-shCon group reached 1000 mm^3. Tumor xenografts were excised at time of euthanasia. Representative samples were flash-frozen in liquid nitrogen for subsequent protein expression analysis by immunoblotting, as well as being formalin-fixed paraffin-embedded (alternatively, FFPE) for subsequent hematoxylin and eosin staining and immunohistochemical analysis. FFPE sections were reviewed by a pathologist (alternatively, P.H.), and cellular necrosis was quantified as % cross-sectional area of bisected tumor xenografts. […]

Each structure is given as a SMILES string.

In the case of `C[C@@H]1COCCN1c1cc(C2([S@](C)(=N)=O)CC2)nc(-c2cc[nH]c3nccc2-3)n1` [AZD6738], the “Phosphorylation of CHK1 on serine 345” value in the data set on P-CHK1 Ser345 is “decreased levels”. Moreover, the IC50 in the data set on OVISE cells, LacZ is 0.7 ± 0.03 µM; with OVISE cells, LacZ Dox, 0.67 ± 0.11 µM; in data set [1] it was 6.99 ± 0.34 µM; in data set [2], 0.77 ± 0.16 µM.

Regarding `C/C(O)=C(\C#N)C(=O)Nc1ccc(C(F)(F)F)cc1` [Teriflunomide, teriflunomide], the “Weight loss or toxicity in mice” value in the data set with ES2-shARID1A xenografts is “no significant weight loss or toxicity”. The IC50 in the data set on OVISE cells, LacZ was 18.2 ± 1.19 µM; in the data set on OVISE cells, LacZ Dox, 19.3 ± 1.24 µM; in data set [1] it was 109 ± 3.18 µM; in data set [2], 19.1 ± 1.07 µM.
